Reference: ChEMBL document CHEMBL3507680, “University of Dundee, Gates Library screen for HepG2 cell viability”

Experiment: Human HepG2 cell viability assay in 384 well format
Format: toxicity, cell-based
Design: dose 125 nL, time 70.5 hour; cytotoxicity at 70.5 h: concentration not given beside the values
Settings: HepG2 cells, read-out: Inhibition

SMILES | cytotoxicity at 70.5 h
CCOc1cccc(C(=O)Nc2ccncc2)c1 | -8.85%
Cc1ccc(S(=O)(=O)N2CC[C@@H](O)C2)c(F)c1 | -2.84%
Cc1noc(NCc2cc(F)ccc2F)n1 | -3.22%
COCCOc1ccc(NC(=O)N(CC2CCOC2)C2CC2)cn1 (stereo not drawn) | -2.98%
CCN(C)CC1CCN(S(=O)(=O)c2cc(C)c(F)cc2Cl)C1 (stereo not drawn) | -4.14%
CCc1nc2n(n1)CC(NCc1nc(C)c(C)o1)CC2 (stereo not drawn) | -5.85%
Cn1cc(C2CCCN2CC(=O)N(CCC#N)Cc2ccco2)cn1 (stereo not drawn) | 2%
CCc1nnc(C2Cc3ccccc3CN2Cc2nc(C3CC3)no2)o1 (stereo not drawn) | -5.61%
c1cncc(CN2CCC(c3n[nH]c(C4CC4)n3)CC2)c1 | 33.7%
O=C(c1ccoc1)N1CCC(NCc2ccccc2-n2ccnc2)CC1 | 9.01%
CC(C)CN1CC(C(=O)NCCc2ccc(OC(F)F)cc2)CC1=O (stereo not drawn) | 9.73%
O=C(CCNc1ncccn1)NCCc1ccc(Cl)s1 | -3.42%
O=C(CCNc1ncccn1)NCc1csc(Br)c1 | 11.5%
CCS(=O)(=O)N1CCC(Nc2c(F)cc(C#N)cc2F)CC1 | -9.63%
CCCS(=O)(=O)N1CCC(Nc2c(F)cc(C#N)cc2F)CC1 | -2.66%
Cc1nc(S(=O)(=O)NCCC(=O)NCc2ccc(C#N)cc2)cn1C | -0.237%
CCN(CC)c1ccc(CNC(=O)c2cnc(C)cn2)cn1 | -4.04%
CNC(=O)C1CCN(C(=O)NCc2ccc(C)n2C)CC1 | -4.71%
Nc1cc2c(nn1)CCN(C(=O)Cc1ccc3c(c1)CCCC3)C2 | -2.05%
CN(C)c1cc2c(nn1)CCN(C(=O)Cc1ccc3c(c1)CCO3)C2 | -5.69%
NC(=O)CC1CCN(C(=O)NCC2(c3ccccc3F)CC2)CC1 | 0.188%
Nc1cc2c(nn1)CCN(C(=O)Cc1ccc3c(c1)CCO3)C2 | 9.71%
Nc1cc2c(nn1)CCN(C(=O)CCc1ccc3c(c1)OCO3)C2 | -6.15%
O=C(CCc1ccsc1)NCc1ccnc(OC2CCOCC2)c1 | -5.9%

SMILES | cytotoxicity at 70.5 h
Cc1c(NC(C)C(C)C)cccc1C(=O)NCc1nnc(C)n1C (stereo not drawn) | 8.29%
Cc1ccc(F)cc1C(=O)OCC1CCCN1C(N)=O (stereo not drawn) | -1.91%
Cc1c(F)cccc1NC(=O)N(C(C)CS(C)(=O)=O)C1CC1 (stereo not drawn) | -4.32%
CC(C)Cc1cc(NC(=O)N2CCC(Oc3cccnc3)C2)n(C)n1 (stereo not drawn) | 5.38%
Cc1noc(-c2cccnc2N2CCN(c3cnn(C)c3)CC2)n1 | -12%
Cn1cc(CCC(=O)NS(=O)(=O)N2CCCc3ccccc32)cn1 | -8.12%
O=C(NCCc1ccsc1)c1ccoc1 | 5.67%
CN(CCn1nc2ccccn2c1=O)CC(=O)N(C)C1CCCCC1 | 2.32%
Cc1nc(CNC(=O)NC2CCCN(c3ncccn3)C2)cs1 (stereo not drawn) | -14.1%
COC(=O)C(C)(C)NC(=O)C1CC(=O)N(CC2CC2)C1 (stereo not drawn) | -6.45%
Cc1nc2cc(O)nn2c(C)c1CCC(=O)N(C)Cc1ccccc1 | 2.7%
Cc1ccc(C(=O)N(C)CCOc2ccccc2F)c(=O)[nH]1 | -5.2%
COc1c(CNCc2cccnc2N2CCCCC2)c(C)nn1C | 2.37%
Cc1nn(C)c(N(C)C)c1CNCc1cccnc1N1CCOCC1 | -8.33%
Cc1nnc2n1CCN(C(=O)c1cn(-c3ccccc3)nn1)C2 | -1.52%
Cc1nc2cc(O)nn2c(C)c1CCC(=O)N(C)CCC(C)C | -7.92%
CCOc1ccc(NC(=O)N2CCOC(C(N)=O)C2)cc1Cl (stereo not drawn) | 2.49%
Cc1ccc(NC(=O)N2CCOC(C(N)=O)C2)cc1C(F)(F)F (stereo not drawn) | -4.03%
COc1ccc(OC)c(C(=O)N2CCC(Nc3cccnc3)CC2)c1 | -0.864%
CCOc1ccc(NC(=O)N2CCOC(C(N)=O)C2)cc1C (stereo not drawn) | 1.77%
CN1N=C(C(=O)N(Cc2ccco2)C2CCCC2)CCC1=O | -9.57%
O=C(Cc1ccc2c(c1)CCC2)N1CCCC1Cn1cccn1 (stereo not drawn) | 26.4%
CN(CCN1CCOCC1)C(=O)CCCOCCc1ccccc1 | 13.1%
CN(Cc1ccc(F)cc1)S(=O)(=O)N1CCOCC1 | 6.44%

SMILES | cytotoxicity at 70.5 h
O=C(NCc1ccccn1)NC1CCCN(c2ncccn2)C1 (stereo not drawn) | -9.45%
O=C(NCc1ccoc1)NC1CCN(c2ncccn2)CC1 | 16.1%
CNC(=O)c1ccc(CNC(=O)c2ccc(Cl)cc2F)cc1 | -11.8%
CCC(=O)Nc1ccc2c(ccn2CCOC)c1 | -8.06%
COC1CCN(C(=O)c2cc(-c3ccc(Cl)cc3)on2)CC1 | -8.24%
CCOC1CCN(C(=O)c2cc(-c3ccc(Cl)cc3)on2)CC1 | -5.56%
COCCn1ccc(NC(=O)Nc2ccccn2)n1 | -10%
CC1CCC(NC(=O)Nc2ccc(CC(=O)N(C)C)cc2)CC1 (stereo not drawn) | -5.4%
CN(C(=O)Cc1ccc(NC(=O)NC2CC2)cc1)c1ccccc1 | 19.9%
COCCn1ccc(NC(=O)Nc2ccccc2)n1 | -2.83%
COCCn1ccc2cc(NC(=O)N(C)C(C)CSC)ccc21 (stereo not drawn) | 1.74%
O=C(c1cc2ccccc2c(=O)[nH]1)N1CCN(CCO)CC1 | -4.06%
O=C(Nc1ccc2ncccc2c1)C1CC(=O)N(Cc2ccccn2)C1 (stereo not drawn) | -4.54%
CC(NC(=O)c1ccnn1C)c1ccc(OCC2CC2)c(F)c1 (stereo not drawn) | 10.9%
COc1ccc(S(=O)(=O)NC(=O)c2c(C)noc2C(C)C)cc1C | -5.8%
CCN(Cc1cccc(F)c1)S(=O)(=O)N1CCOCC1 | 0.239%
CN(C(=O)Cc1ccc2c(c1)OCCO2)C1CCCCC1 | -1.71%
Cc1ccccc1OCCCC(=O)N(C)CCC#N | -5.57%
CCc1nccn1C1CCCN(C(=O)c2ccc(N(C)C)nn2)C1 (stereo not drawn) | -7.7%
CCc1nccn1C1CCCN(C(=O)c2ccn(-c3ccccc3)n2)C1 (stereo not drawn) | -1.19%
COc1ccc(N2CCCN(C(=O)Cc3csc(C)n3)CC2)cc1 | 0.0529%
CC(C(=O)N1CCCC1)N1CCCN(C(=O)Oc2ccccc2)CC1 (stereo not drawn) | -10.6%
CCn1c(C)cc(C(=O)N2CCCC(n3ccnc3C)C2)c1C (stereo not drawn) | -6.2%
NCC(c1ccc(Cl)cc1)N1CCc2sccc2C1 (stereo not drawn) | 7.32%

SMILES | cytotoxicity at 70.5 h
Cc1ccc(C(=O)NCCCNS(C)(=O)=O)cc1C | -9.61%
CCOC(=O)c1c(NC(=O)CN2CCN(C(C)=O)CC2)sc(C)c1C | -13.3%
Cc1ccc(C(=O)NCCCN(C)S(C)(=O)=O)cc1-n1cccc1 | -8.22%
CC(C)C(C)NC(=O)Nc1ccc(CC(N)=O)cc1 (stereo not drawn) | -3.59%
Cc1ccc(C(=O)NS(C)(=O)=O)cc1-n1cccc1 | -6.32%
Cc1ccc(C(=O)N(C)Cc2nccn2CC(F)(F)F)cn1 | -13.5%
COCCNC(=O)NC(C)COc1ccc(F)cc1F (stereo not drawn) | -0.107%
Cc1cnn(CC2CCCCN2C(=O)Cc2c(C)noc2Cl)c1 (stereo not drawn) | 24.1%
Cc1cnn(CC2CCCCN2C(=O)Cc2c(C)noc2C)c1 (stereo not drawn) | -9.25%
O=C(CN1CCCC1CCCO)NCc1ccccn1 (stereo not drawn) | 1.57%
COc1cccc2c1OCC(NC(=O)NCCC(N)=O)C2 (stereo not drawn) | -7.75%
Cc1cc(C)n(CCCNC(=O)C(C)NC(=O)CC2CCCCC2)n1 (stereo not drawn) | -5.96%
CCCc1n[nH]c(C2CN(C(=O)c3cc(C4CC4)on3)CCO2)n1 (stereo not drawn) | -10.9%
CNS(=O)(=O)c1cc(C(=O)NC2COc3ccccc32)cc(C)c1C (stereo not drawn) | -13.5%
O=C(NCCc1nnc2n1CCC2)NCC1(c2ccc(F)cc2)CC1 | -7.03%
Cn1cc(CC2CCN(C(=O)NCCCc3ccc(O)cc3)C2)cn1 (stereo not drawn) | -9.85%
CCCc1noc(CCC(=O)N2CCCC2Cn2cc(C)cn2)n1 (stereo not drawn) | -10.8%
CCC(=O)NCC(c1ccc(SC)cc1)N1CCc2sccc2C1 (stereo not drawn) | -8.32%
COC(=O)c1ccoc1CN(C)Cc1ccccc1 | -0.994%
COCCOCC(=O)Nc1ccc(C)cc1Br | -3.99%
COc1ccccc1CC(C)(C)NC(=O)CNS(C)(=O)=O | -2.04%
O=C(CN1CCCS(=O)(=O)CC1)NCc1ccccc1F | -8.4%
O=C(CC1CCCO1)NCc1ccc(Br)cc1F (stereo not drawn) | -5.9%
CCOCCCC(=O)NC1CCN(C(C)c2ccccc2)CC1 (stereo not drawn) | -5.8%

SMILES | cytotoxicity at 70.5 h
N#CCCN(Cc1cccnc1)C(=O)Cc1ccc(-n2cnnn2)cc1 | -10.6%
COc1ccc(-n2ccc(CNCc3cccc(OC)c3)n2)cc1 | 23.7%
Cc1cccc(OCCNC(=O)C(C)S(=O)(=O)C2CCCC2)c1 (stereo not drawn) | -9.37%
CCC(NC(=O)NCc1ccoc1C)c1c(C)nn(C)c1C (stereo not drawn) | -5.65%
Cc1nn(C)c(C)c1CC(C)NC(=O)NCc1ccn(C(C)C)n1 (stereo not drawn) | -5.76%
CC(C)CNC(=O)c1ccc(NC(=O)NC(C)(C)CO)cc1Cl | -2.58%
CCC1(c2ccc(NS(=O)(=O)c3cccs3)cc2)CCC(=O)NC1=O (stereo not drawn) | -1.8%
CC(C)CN1C(=O)C2(CCCC2)NC1c1cccnc1 (stereo not drawn) | 17.9%
CC(CO)CNC(=O)c1cc2cccc(F)c2o1 (stereo not drawn) | -9.63%
CCN(CC)S(=O)(=O)CCNC(=O)c1cc2cccc(F)c2o1 | -1.2%
CCc1nsc(N2CCCN(C(=O)c3ccsc3)CC2)n1 | 14%
CCc1nsc(N2CCCN(C(=O)c3ccc(CC)o3)CC2)n1 | -11%
CCc1nsc(N2CCCN(C(=O)c3ccc(OC)cc3)CC2)n1 | -10.9%
CCOC(=O)C(CO)NC(=O)CCc1cccc(OC2CCCC2)c1 (stereo not drawn) | -3.2%
Cc1nc(NC(=O)CCOCC(F)(F)F)ccc1Br | 2.27%
CC(NC(=O)c1cccnc1N(C)C)c1ccccc1Cl (stereo not drawn) | -9.9%
CCC(NCc1ccccc1C)c1ccccc1OCC(=O)NC (stereo not drawn) | 25.2%
O=C1OCCN1c1cccc(CNS(=O)(=O)Cc2ccc(F)cc2)c1 | -6.39%
CC(C)N(C)C(=O)c1ccc(CNc2ncc(C#N)cc2Cl)cc1 | 18.7%
Cc1cc(C)c(CCNC(=O)NCCCC(N)=O)c(C)c1 | -1.98%
CC(NC(=O)CCc1cccc(OC2CCCC2)c1)c1nncn1C (stereo not drawn) | 2.36%
O=C(c1ccoc1)N1CCC(NCc2ccccc2Cl)CC1 | -8.33%
